According to patent US6432640B1, “P53-induced apoptosis” (priority 1997, dated 2002):

Tests used:
Assay type in all cases: cell-based, human
[1] = test system: DLD-1 cells; assay: ROS production in Ad-p53-infected cells (lucigenin chemiluminescence); conditions: treated 12 hours after Ad-p53 infection
Procedure: (§1) Flow cytometry and other assays. Cells were collected with the aid of trypsin and incubated with CM-H2DCF-DA or NAO (Molecular Probes, Eugene, Oreg.) at concentrations of 10 and 0.4 μM, respectively, for 20 minutes at 37° C. prior to analysis by flow cytometry (14,15). To determine the fraction of apoptotic cells after various treatments, cells were stained with the DNA-binding dye H33258 and evaluated by fluorescence microscopy or flow cytometry as described (1). Superoxide production was assessed with lucigenin (29). In brief, 4-5×10^6 cells were collected with rubber policeman and resuspended in 1 ml of Earle's Balanced Salt Solution (Gibco BRL 14015-069, Life Technologies). Dark-adapted lucigenin (bis-N-methulacridinium nitrate, Sigma M8010) was added to the samples to a final concentration of 20 μM. Light emission was detected using a Berthold LB 9505C luminometer for 60 minutes at 37° C. Glutathione concentrations were measured using an assay kit purchased from Oxford Biomedical Res. Inc. according to the manufacturer's instructions. Caspase activation was assessed by cleavage of PARP (polyADP-ribose polymerase). Lysates from cells infected with Ad-p53 were Western blotted with an anti-PARP antibody, and the cleavage fragments were quantitated by densitometry (4). […]

[2] = test system: DLD-1 cells; assay: p53-mediated growth arrest dependent on p21 (flow cytometry)
Procedure: as §1

[3] = test system: DLD-1 cells; assay: Toxicity of inhibitor to cells at the dose used; conditions: 100 μM
Procedure: Finally, we treated cells with bongkrekic acid (BA), a specific inhibitor of mitochondrial ATP translocase which can block the mitochondrial permeability transition pore opening thought to be required for ROS-dependent forms of apoptosis (13). […] BA was non-toxic at the dose used (100 μM). While BA inhibited the p53-apoptotic process dependent on ROS production, it had no effect on the p53-mediated growth arrest dependent on p21 as assessed by flow cytometry.

[4] = test system: DLD-1 cells; assay: p53-induced apoptosis in Ad-p53-infected CRC cells (H33258 staining); conditions: for block of apoptosis: inhibitor given at (up to) 8 hours following Ad-p53 infection, apoptosis at 24 hours
Procedure: (§2) Cells and RNA. All cell lines used in this study were obtained from the American Type Culture Collection and were cultured in McCoy's medium supplemented with 10% fetal bovine serum (FBS). Cells were infected with recombinant adenoviruses containing either the p53 gene or the β-galactosidase gene (26) at a multiplicity of infection of 10-100. RNA was purified from cells at various times after infection using the MessageMaker Kit (Gibco/BRL). Northern blot analysis was performed as described (26).
Flow cytometry and other assays. Cells were collected with the aid of trypsin and incubated with CM-H2DCF-DA or NAO (Molecular Probes, Eugene, Oreg.) at concentrations of 10 and 0.4 μM, respectively, for 20 minutes at 37° C. prior to analysis by flow cytometry (14,15). To determine the fraction of apoptotic cells after various treatments, cells were stained with the DNA-binding dye H33258 and evaluated by fluorescence microscopy or flow cytometry as described (1). Superoxide production was assessed with lucigenin (29). In brief, 4-5×10^6 cells were collected with rubber policeman and resuspended in 1 ml of Earle's Balanced Salt Solution (Gibco BRL 14015-069, Life Technologies). Dark-adapted lucigenin (bis-N-methulacridinium nitrate, Sigma M8010) was added to the samples to a final concentration of 20 μM. Light emission was detected using a Berthold LB 9505C luminometer for 60 minutes at 37° C. Glutathione concentrations were measured using an assay kit purchased from Oxford Biomedical Res. Inc. according to the manufacturer's instructions. Caspase activation was assessed by cleavage of PARP (polyADP-ribose polymerase). Lysates from cells infected with Ad-p53 were Western blotted with an anti-PARP antibody, and the cleavage fragments were quantitated by densitometry (4).
To evaluate the patterns of gene expression following p53 expression, we employed SAGE, a technique which allows the quantitative evaluation of cellular mRNA populations (3). In brief, the method revolves around short sequence “tags” (11 bp), generated from defined positions within each mRNA molecule. Expression patterns are deduced from the abundance of individual tags. […] As previously shown, DLD-1 cells are among the ˜50% of CRC lines that undergo apoptosis in response to p53 (4). RNA was purified from cells 16 hours after infection, at least 8 hours before the onset of morphological signs of apoptosis.
To determine whether these steps were causally associated, we inhibited each step with specific pharmacologic agents and determined the effect of this inhibition on other components of the pathway.

[5] = test system: PIGs (p53-induced genes); assay: PIG expression in DLD-1 cells (Northern blot); conditions: for PIG induction by other inducers of ROS or apoptosis: DLD-1 cells
Procedure: as §2
To determine the specificity of PIG expression for the p53-dependent apoptotic process, we performed experiments with other inducers of ROS or apoptosis.

[6] = test system: PIG3; assay: PIG3 induction by endogenous p53 in six CRC cancer cell lines
Procedure: as §2
As a further test of the p53-dependency of PIG3 induction, we determined whether PIG3 could be induced by endogenous p53 rather than through the exogenous Ad-p53 source. Six CRC cancer cell lines were each treated with adriamycin, a DNA-damaging and apoptotic-inducing agent known to increase endogenous p53 levels.

[7] = test system: DLD-1 cells; assay: Cell death by other inducers of apoptosis
Procedure: as §1

[8] = test system: DLD-1 cells; assay: ROS by CM-DCF-DA and cardiolipin by NAO, flow cytometry
Procedure: FIG. 4A. DLD-1 cells were infected with Ad-p53 or control (Ad-lacZ) viruses and harvested after 27, 35, or 42 hours. Cells were incubated with CM-DCF-DA, a probe of ROS, or NAO, a probe of the mitochondrial membrane cardiolipin, and analyzed by flow cytometry. The mean fluorescence of the control cells is indicated by vertical lines in each box. The pro-oxidant drug menadione was used as a positive control to induce oxidative stress.
Flow cytometry and other assays. […] To determine the fraction of apoptotic cells after various treatments, cells were stained with the DNA-binding dye H33258 and evaluated by fluorescence microscopy or flow cytometry as described (1). Superoxide production was assessed with lucigenin (29). […] Light emission was detected using a Berthold LB 9505C luminometer for 60 minutes at 37° C. Glutathione concentrations were measured using an assay kit purchased from Oxford Biomedical Res. Inc. according to the manufacturer's instructions. Caspase activation was assessed by cleavage of PARP (polyADP-ribose polymerase). Lysates from cells infected with Ad-p53 were Western blotted with an anti-PARP antibody, and the cleavage fragments were quantitated by densitometry (4). […]

[9] = 100 μM, treated 12 hours after Ad-p53 infection

## CO[C@H](C/C=C\C=C\CC/C=C/C[C@H](C)/C=C/C(=C\C(=O)O)CC(=O)O)/C(C)=C\C=C(/C)C(=O)O [BA, bongkrekic acid]
[1]; 100 μM
  ROS production: inhibit neither
[2]
  effect on p53-mediated growth arrest dependent on p21: no effect
[3]
  toxicity at the dose used: non-toxic
[4]; [9]
  inhibition of subsequent apoptosis: 86-93%
[5]; [9]
  PIG3 expression: inhibit neither

## c1ccc2c(c1)[I+]c1ccccc1-2 [DPI, diphenyleneiodonium chloride]
[1]; Homo sapiens, DLD-1, 25 μM, measured 12 hours later, three independent experiments
  inhibition at 25 µM: 71 to 85%
[4]; Homo sapiens, DLD-1, 25 μM, treated 12 hours after Ad-p53 infection, measured 12 hours later, three independent experiments
  inhibition at 25 µM: 73 to 77%
[5]
  PIG3 production: did not inhibit

## OC[C@H]1O[C@@H](n2cnc3cc(Cl)c(Cl)cc32)[C@H](O)[C@@H]1O [DRB, 5,6-dichlorobenimidizole riboside]
[4]
  block of apoptosis: 83+/−3%
[5]; Ad-p53-infected cells, DRB at 8 hours following infection
  expression of PIGs: inhibit the expression of PIGs

## S=C(S)N1CCCC1 [PDTC, pyrrolidine dithiocarbamate]
[4]; p53-expressing cells treated with anti-oxidant
  block of apoptosis elicited by p53: able to block the apoptosis

## COc1cccc2c1C(=O)c1c(O)c3c(c(O)c1C2=O)C[C@@](O)(C(=O)CO)C[C@@H]3O[C@H]1C[C@H](N)[C@H](O)[C@H](C)O1 [adriamycin]
[6]; three CRC lines with mutant p53 genes
  PIG3 induction: not in the three lines with mutant p53 genes
[6]; three CRC lines with wild-type p53 genes
  PIG3 induction: strongly induced

## C[C@@H]1C[C@@H]([C@H](O)CC2CC(=O)NC(=O)C2)C(=O)[C@@H](C)C1 [cycloheximide]
[4]
  block of apoptosis: 79%

## OO [hydrogen peroxide]
[5]
  PIG induction by other inducers of ROS or apoptosis: only p21 was induced

## COc1ccc2c(c1)c(CC(=O)O)c(C)n2C(=O)c1ccc(Cl)cc1 [indomethacin]
[5]
  PIG induction by other inducers of ROS or apoptosis: did not result in the expression of any PIG
[7]
  cell death: extensive cell death

## CC1=CC(=O)c2ccccc2C1=O [menadione]
[8]
  ROS (DCF fluorescence): increase in ROS
[5]
  PIG induction by other inducers of ROS or apoptosis: none were induced

## ceramide
[5]
  PIG induction by other inducers of ROS or apoptosis: did not result in the expression of any PIG
[7]
  cell death: extensive cell death
